US10875876B2, “Cyclized sulfamoylarylamide derivatives and the use thereof as medicaments for the treatment of hepatitis B” (priority 2015, dated 2020)
Like-named read-outs stand apart in the source and are kept apart here.

Tests used:
[1] = system: HBV; assay: anti HBV activity, HepG2.117 cell line, intracellular HBV DNA by realtime PCR; format: cell-based; conditions: HepG2.117 cell line (Tet-off), 3 days of treatment, intracellular HBV DNA quantified by realtime PCR, read-out: HBV-AVE-HepG2.117 EC50
Procedure: The anti HBV activity was measured using the HepG2.117 cell line, a stable, inducibly HBV producing cell line, which replicates HBV in the absence of doxicycline (Tet-off system). For the antiviral assay, HBV replication was induced, followed by a treatment with serially diluted compound in 96-well plates in duplicate. After 3 days of treatment, the antiviral activity was determined by quantification of intracellular HBV DNA using realtime PCR and an HBV specific primer set and probe.

[2] = Cytotoxicity in HepG2 cells, Resazurin assay; conditions: human, HepG2 cells, TOX-HepG2-4 d CC50 (μM), HepG2 cells incubated for 4 days, viability by Resazurin assay
[3] = Hepatitis B virus, HepG2.117, 72 h

SMILES	EC50 [1]	CC50 at 4 days [2]	EC50 [1, 3]
Cn1cc2c(c1C(=O)Nc1ccc(F)c(F)c1)OCC(C1CCOCC1)NS2(=O)=O (single isomer, unassigned) [Compound 89a, N-(3,4-difluorophenyl)-7-methyl-1,1-dioxo-3-tetrahydropyran-4-yl-3,4-dihydro-2H-pyrrolo[3,4-b][1,4,5]oxathiazepine-6-carboxamide]	190 nM	> 25 µM	
CC1/C=C\Cc2c(cn(C)c2C(=O)Nc2ccc(F)c(F)c2)S(=O)(=O)N1 (stereo not drawn) [Compound 5, (4Z)—N-(3,4-difluorophenyl)-3,8-dimethyl-1,1-dioxo-3,6-dihydro-2H-pyrrolo[3,4-g]thiazocine-7-carboxamide]		> 25 µM	180 nM
C[C@@H](O)[C@H]1C=Cc2c(cn(C)c2C(=O)Nc2ccc(F)c(F)c2)S(=O)(=O)N1 [Compound 69, (3R)—N-(3,4-difluorophenyl)-3-[(1R)-1-hydroxyethyl]-7-methyl-1,1-dioxo-2,3-dihydropyrrolo[3,4-f]thiazepine-6-carboxamide]		> 25 µM	33 nM
C[C@H](O)[C@H]1COc2c(cn(C)c2C(=O)Nc2ccnc(Br)c2)S(=O)(=O)N1 [Compound 66, (3R)—N-(2-bromo-4-pyridyl)-3-[(1S)-1-hydroxyethyl]-7-methyl-1,1-dioxo-3,4-dihydro-2H-pyrrolo[3,4-b][1,4,5]oxathiazepine-6-carboxamide]		> 25 µM	47 nM
CC1C=Cc2c(cn(C)c2C(=O)Nc2cc(F)c(F)c(F)c2)S(=O)(=O)N1 (single isomer, unassigned) [Compound 29, (*S)-3,7-dimethyl-1,1-dioxo-N-(3,4,5-trifluorophenyl)-2,3-dihydropyrrolo[3,4-f]thiazepine-6-carboxamide]		> 25 µM	5 nM
Cc1cccc(C2(C)COc3c(cn(C)c3C(=O)Nc3ccc(F)c(F)c3)S(=O)(=O)N2)n1 (racemic) [Compound 168, N-(3,4-difluorophenyl)-3,7-dimethyl-3-(6-methyl-2-pyridyl)-1,1-dioxo-2,4-dihydropyrrolo[3,4-b][1,4,5]oxathiazepine-6-carboxamide]		> 25 µM	25 nM
COC(=O)C1COc2c(cn(C)c2C(=O)Nc2ccc(F)c(F)c2)S(=O)(=O)N1 (stereo not drawn) [compound 243]		> 25 µM	> 500 nM
Cn1cc2c(c1C(=O)Nc1ccnc(C(F)(F)F)c1)CCC(C(F)(F)F)NS2(=O)=O (single isomer, unassigned) [Compound 59a, 7-methyl-1,1-dioxo-3-(trifluoromethyl)-N-[2-(trifluoromethyl)-4-pyridyl]-2,3,4,5-tetrahydropyrrolo[3,4-f]thiazepine-6-carboxamide]	> 500 nM	> 25 µM	
Cn1cc2c(c1C(=O)Nc1ccc(F)c(F)c1)OCC(C1CCNCC1)NS2(=O)=O (stereo not drawn) [Compound 73, N-(3,4-difluorophenyl)-7-methyl-1,1-dioxo-3-(4-piperidyl)-3,4-dihydro-2H-pyrrolo[3,4-b][1,4,5]oxathiazepine-6-carboxamide]		> 25 µM	480 nM
CC(C)C1C=Cc2c(cn(C)c2C(=O)Nc2ccc(F)c(F)c2)S(=O)(=O)N1 (single isomer, unassigned) [Compound 79a, N-(3,4-difluorophenyl)-3-isopropyl-7-methyl-1,1-dioxo-2,3-dihydropyrrolo[3,4-f]thiazepine-6-carboxamide]	43 nM	> 25 µM	
CC(C)[C@@H]1COc2c(ccc(F)c2C(=O)Nc2ccc(F)c(C#N)c2)S(=O)(=O)N1 [Compound 49, (3R)—N-(3-cyano-4-fluoro-phenyl)-7-fluoro-3-isopropyl-1,1-dioxo-3,4-dihydro-2H-5,1λ^6,2-benzoxathiazepine-6-carboxamide]		> 25 µM	310 nM
Cn1cc2c(c1C(=O)Nc1cc(F)c(F)c(F)c1)C=CC1(COC1)NS2(=O)=O [Compound 143, 7-methyl-1,1-dioxo-N-(3,4,5-trifluorophenyl)spiro[2H-pyrrolo[3,4-f]thiazepine-3,3′-oxetane]-6-carboxamide]		> 25 µM	24 nM
Cn1cc2c(c1C(=O)Nc1ccc(F)c(C#N)c1)C=CC1(COC1)NS2(=O)=O [Compound 140, N-(3-cyano-4-fluoro-phenyl)-7-methyl-1,1-dioxo-spiro[2H-pyrrolo-[3,4-f]thiazepine-3,3′-oxetane]-6-carboxamide]		> 25 µM	62 nM
Cc1cc(CC2(C)COc3c(cn(C)c3C(=O)Nc3ccc(F)c(F)c3)S(=O)(=O)N2)n(C)n1 (racemic) [Compound 175, N-(3,4-difluorophenyl)-3-[(2,5-dimethylpyrazol-3-yl)methyl]-3,7-dimethyl-1,1-dioxo-2,4-dihydropyrrolo[3,4-b][1,4,5]oxathiazepine-6-carboxamide]		> 25 µM	4 nM
Cc1cc(CC2(C)COc3c(cn(C)c3C(=O)Nc3ccc(F)c(F)c3)S(=O)(=O)N2)no1 (single isomer, unassigned) [Compound 162a, N-(3,4-difluorophenyl)-3,7-dimethyl-3-[(5-methylisoxazol-3-yl)methyl]-1,1-dioxo-2,4-dihydropyrrolo[3,4-b][1,4,5]oxathiazepine-6-carboxamide]	33 nM	> 25 µM	
Cc1cc(CC2(C)COc3c(cn(C)c3C(=O)Nc3ccc(F)c(C#N)c3)S(=O)(=O)N2)no1 (single isomer, unassigned) [Compound 220a, N-(3-cyano-4-fluoro-phenyl)-3,7-dimethyl-3-[(5-methylisoxazol-3-yl)methyl]-1,1-dioxo-2,4-dihydropyrrolo[3,4-b][1,4,5]oxathiazepine-6-carboxamide]	7 nM	> 25 µM	
CC1CCCC/C=C/Cc2c(cn(C)c2C(=O)Nc2ccc(F)c(F)c2)S(=O)(=O)N1 (stereo not drawn) [Compound 1, (9E)-N-(3,4-difluorophenyl)-4,14-dimethyl-2,2-dioxo-2λ^6-thia-3,14-diazabicyclo[10.3.0]pentadeca-1(15),9,12-triene-13-carboxamide]		> 25 µM	2740 nM
Cc1cccc(C2(C)COc3c(cn(C)c3C(=O)Nc3ccc(F)c(C(F)F)c3)S(=O)(=O)N2)n1 (single isomer, unassigned) [Compound 177a, N-[3-(difluoromethyl)-4-fluoro-phenyl]-3,7-dimethyl-3-(6-methyl-2-pyridyl)-1,1-dioxo-2,4-dihydropyrrolo[3,4-b][1,4,5]oxathiazepine-6-carboxamide]		> 25 µM	
Cc1cc(NC(=O)c2c3c(cn2C)S(=O)(=O)N[C@@H]([C@H](C)O)C=C3)ccc1F [Compound 99, (3R)—N-(4-fluoro-3-methyl-phenyl)-3-[(1S)-1-hydroxyethyl]-7-methyl-1,1-dioxo-2,3-dihydropyrrolo[3,4-f]thiazepine-6-carboxamide]		> 25 µM	4 nM
Cn1ccc(C2(C)COc3c(cn(C)c3C(=O)Nc3ccc(F)c(F)c3)S(=O)(=O)N2)n1 (racemic) [Compound 192, N-(3,4-difluorophenyl)-3,7-dimethyl-3-(1-methylpyrazol-3-yl)-1,1-dioxo-2,4-dihydropyrrolo[3,4-b][1,4,5]oxathiazepine-6-carboxamide]		> 25 µM	56 nM
CC1CNc2c(cn(C)c2C(=O)Nc2ccc(F)c(F)c2)S(=O)(=O)N1 (stereo not drawn) [Compound 67, N-(3,4-difluorophenyl)-3,7-dimethyl-1,1-dioxo-2,3,4,5-tetrahydropyrrolo[3,4-f][1,2,5]thiadiazepine-6-carboxamide]		> 25 µM	69 nM
Cc1ccc(NC(=O)c2c(F)ccc3c2OC[C@H](C(C)C)NS3(=O)=O)cc1F [compound 232]		> 25 µM	> 500 nM
Cc1cc(NC(=O)c2c3c(cn2C)S(=O)(=O)N[C@@H](Cc2cccnc2)CO3)ccc1F [Compound 74, (3S)—N-(4-fluoro-3-methyl-phenyl)-7-methyl-1,1-dioxo-3-(3-pyridylmethyl)-3,4-dihydro-2H-pyrrolo[3,4-b][1,4,5]oxathiazepine-6-carboxamide]		> 25 µM	52 nM
C[C@H]1CCc2c(cn(C)c2C(=O)Nc2ccc(F)c(C#N)c2)S(=O)(=O)N1 (single isomer, unassigned) [Compound 56, (3*S)—N-(3-cyano-4-fluoro-phenyl)-3,7-dimethyl-1,1-dioxo-2,3,4,5-tetrahydropyrrolo[3,4-f]thiazepine-6-carboxamide]		> 25 µM	10 nM
Cn1cc2c(c1C(=O)Nc1ccc(F)c(F)c1)OC[C@H](C(C)(C)O)NS2(=O)=O [Compound 93, (3R)—N-(3,4-difluorophenyl)-3-(1-hydroxy-1-methyl-ethyl)-7-methyl-1,1-dioxo-3,4-dihydro-2H-pyrrolo[3,4-b][1,4,5]oxathiazepine-6-carboxamide]		> 25 µM	12 nM
Cc1cc(CC2(C)COc3c(cn(C)c3C(=O)Nc3cc(F)c(F)c(F)c3)S(=O)(=O)N2)no1 (single isomer, unassigned) [Compound 170a, 3,7-dimethyl-3-[(5-methylisoxazol-3-yl)methyl]-1,1-dioxo-N-(3,4,5-trifluorophenyl)-2,4-dihydropyrrolo[3,4-b][1,4,5]oxathiazepine-6-carboxamide]		> 25 µM	
Cn1cc2c(c1C(=O)Nc1ccc(F)c(F)c1)C=CC(C)(Cc1ccc(Cl)nc1)NS2(=O)=O (stereo not drawn) [Compound 219, 3-[(6-chloro-3-pyridyl)methyl]-N-(3,4-difluorophenyl)-3,7-dimethyl-1,1-dioxo-2H-pyrrolo[3,4-f]thiazepine-6-carboxamide]		> 25 µM	
